According to patent US20250360126A1, “TARGETING AN ENZYME REQUIRED FOR ACUTE MYELOID LEUKEMIA” (Albert Einstein College of Medicine, priority 2023, published 2025):

Key:
[1] = molecular target: T1, recombinant human TTLL4 catalytic domain (Homo sapiens, UniProt Q14679); test: TTLL4 activity immunoassay (anti-glu immuno-detection of glutamylated Nap2 substrate); type: biochemical; conditions: 0.2 millimolar ATP, 1 millimolar glutamic acid, 30° C., 10 minutes, read-out: in vitro TTLL4 IC50
T1 construct: TTLL4 catalytic domain (composed of residues 561-1199); made in house; host or cells: E. coli
T1 sequence (Q14679 561-1199): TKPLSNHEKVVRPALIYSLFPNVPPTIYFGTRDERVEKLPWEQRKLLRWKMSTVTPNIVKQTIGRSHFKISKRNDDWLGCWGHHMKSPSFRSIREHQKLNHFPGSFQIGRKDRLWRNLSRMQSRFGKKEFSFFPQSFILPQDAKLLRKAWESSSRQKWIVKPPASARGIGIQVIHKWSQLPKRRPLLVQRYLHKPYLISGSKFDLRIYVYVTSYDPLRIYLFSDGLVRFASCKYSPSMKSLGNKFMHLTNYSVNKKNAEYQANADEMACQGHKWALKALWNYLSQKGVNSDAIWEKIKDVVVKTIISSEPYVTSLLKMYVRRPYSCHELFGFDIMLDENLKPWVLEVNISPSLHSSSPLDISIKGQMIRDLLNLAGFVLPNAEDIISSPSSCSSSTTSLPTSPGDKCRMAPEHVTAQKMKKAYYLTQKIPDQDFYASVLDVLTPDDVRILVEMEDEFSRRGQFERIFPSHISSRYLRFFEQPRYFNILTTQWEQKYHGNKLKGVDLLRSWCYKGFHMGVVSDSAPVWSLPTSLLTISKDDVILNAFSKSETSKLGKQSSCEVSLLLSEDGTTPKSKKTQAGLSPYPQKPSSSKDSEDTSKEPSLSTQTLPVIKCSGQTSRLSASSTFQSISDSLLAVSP
Method: To measure TTLL4 activity and inhibition by lead compounds, we used an immunoassay. The antibody against mono-glutamate-glutamylation was prepared by immunizing white rabbits with the following peptide: MY {Glu (Glu)} DDEEESEAQGPKC (based on studies published here: doi: 10.1016/S0091-679X (10) 95003-6). The serum was purified by cross-adsorption against a non-glutamylated peptide: MYEDDEEESEAQGPKC. The purified antibody was stored in PBS with 0.02% Preclin 300. The final ELISA titer from the purified antibodies against the glutamylated peptide was >1:512,000. These antibodies are noted as “anti-glu”.
To measure activity, recombinant human TTLL4 catalytic domain (composed of residues 561-1199) was produced in E. coli and purified via nickel-affinity and size exclusion column (Superdex 200) chromatography. Similarly, the glutamate-glutamylation substrate Nap2 (gene from Xenopus tropicalis) was produced in E. coli and purified via nickel-affinity size exclusion column (Superdex 200) chromatography. […] Intensity measurements were quantified with the Microar-ray Profile plugin for FIJI/ImageJ and analyzed with a 4-parameter model in Graphpad Prism v9.

[2] = test system: OCI-AML3 human cell line (degron-inducible NPM1c); test: NPM1c degradation in OCI-AML3 NPM1c-degron cells, glutamate-glutamylation by Western blot; type: cell-based
Method: FIGS. 3A and 3B illustrate that TTLL4 catalyzes NPM1 and NPM1c glutamate-glutamylation. FIG. 3A is a Western blot of an AML3-NPM1c-degron cell line with a doxycycline (DOX)-inducible TTLL4 shRNA knockdown. Scrambled shRNA or TTLL4 shRNA cells were treated +/−DOX, resulting in loss of glutamate-glutamylation on both NPM1c-degron and NPM1 wild type proteins (top gel, +DOX). FIG. 3B is a summary of a qRT-PCR analysis of shTTLL4 cells treated with DOX.
A doxycycline-inducible TTLL4 shRNA was introduced to this cell line. TTLL4kd eliminated NPM1c glutamate-glutamylation and reduced cellular proliferation (FIGS. 3A, 3B, and 4A). In addition, CRISPR-Cas9 mediated knockout of TTLL4 in OCI-AML3 cells reduced colony formation in methylcellulose (FIG. 4B, methylcellulose colony forming assays are used to detect cell proliferation and hematopoietic/progenitor activity) and increased apoptosis (FIG. 4C).

O=C(Cn1c(=O)c(F)cn(C2CCCO2)c1=O)N1N=C(c2ccc(Cl)cc2)CC1c1ccco1 (stereo not drawn) [Candidate 2]
IC50 [1]: 40 µM

COc1ccc(-c2cc3c(SCC(=O)Nc4c(C)cc(C)cc4C)nccn3n2)cc1 [Candidate 1]
IC50 [1]: 9 µM

CC[C@H](C(=O)N1CCCC[C@H]1C(=O)O[C@H](CCc1ccc(OC)c(OC)c1)c1ccccc1OCC(=O)NCCCCCCOc1cccc2c1C(=O)N(C1CCC(=O)NC1=O)C2=O)c1cc(OC)c(OC)c(OC)c1 (stereo partly drawn) [dTAG-13]
glutamate-glutamylation of the NPM1 wt protein after degradation of NPM1c [2]: loss of glutamate-glutamylation of the NPM1 wt protein
